The assay addresses High affinity nerve growth factor receptor (Homo sapiens, UniProt P04629). The experiment in a line: Functional Activity Assay: TrkA functional activity was measured using a DiscoverX PathHunter assay. In this assay, U2OS cells express the human TrkA receptor as a fusion with the weakly complementing fragment of B-galactosidase, which DiscoverX calls “Prolink (PK)”; additionally, Shcl is fused with a larger fragment, which is called “Enzyme Acceptor (EA)”. Activation of the TrkA receptor, upon NGF addition, results in the kinase domain being phosphorylated, resulting in subsequent recruitment of Shcl-EA protein. That recruitment results in an active B-galactosidase enzyme that is detected by addition of a chemiluminescent substrate. The human p75NTR protein was also expressed as a co-receptor for NGF.All reagents were purchased from DiscoverX, except for the receptor agonists (NGF, BDNF, NT3) which were purchased from Peprotech. Cells were expanded and frozen into cryovials, and stored in the vapor phase of liquid nitrogen, and thawed immediately before use. Thawed cells were added to a 384-well plate at 7500 cells/well, and allowed to incubate overnight. Compound at various concentrations was added the following morning and allowed to incubate on cells for 1 h. Then, NGF was added at a concentration sufficient to elicit ˜80% of a maximal response and allowed to incubate for 3 h at ambient temperature.

In general, IC50 refers to the midpoint of a concentration-inhibition curve.

Chain of High affinity nerve growth factor receptor (P04629 whole entry, the tested form may be a part): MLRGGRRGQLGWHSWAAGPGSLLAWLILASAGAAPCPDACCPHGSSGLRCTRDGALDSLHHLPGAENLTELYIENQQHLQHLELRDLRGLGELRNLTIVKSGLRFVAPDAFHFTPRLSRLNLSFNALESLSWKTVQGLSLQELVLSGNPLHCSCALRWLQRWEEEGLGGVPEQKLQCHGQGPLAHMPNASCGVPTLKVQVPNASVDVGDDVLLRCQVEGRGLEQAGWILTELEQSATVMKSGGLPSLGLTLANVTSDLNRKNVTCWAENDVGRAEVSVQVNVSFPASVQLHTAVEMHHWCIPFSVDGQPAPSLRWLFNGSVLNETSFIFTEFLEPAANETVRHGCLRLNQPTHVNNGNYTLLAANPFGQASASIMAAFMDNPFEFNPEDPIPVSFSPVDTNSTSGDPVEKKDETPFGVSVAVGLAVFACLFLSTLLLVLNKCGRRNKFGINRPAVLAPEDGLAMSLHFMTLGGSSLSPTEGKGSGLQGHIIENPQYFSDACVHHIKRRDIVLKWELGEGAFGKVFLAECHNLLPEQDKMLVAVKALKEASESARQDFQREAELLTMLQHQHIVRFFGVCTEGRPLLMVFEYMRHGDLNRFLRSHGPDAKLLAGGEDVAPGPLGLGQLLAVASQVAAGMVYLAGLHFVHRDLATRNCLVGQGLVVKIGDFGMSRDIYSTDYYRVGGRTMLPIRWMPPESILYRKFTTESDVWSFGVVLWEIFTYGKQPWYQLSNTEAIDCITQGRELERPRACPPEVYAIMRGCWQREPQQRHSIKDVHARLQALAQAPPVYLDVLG

`Cc1ncc(NC(=O)c2cc(-c3ccn(C)n3)c(C(F)(F)F)cc2F)c(-c2ccccc2)n1` registered an IC50 of 1 nM.

Source of the values: ChEMBL document CHEMBL5726597, “TrkA kinase inhibitors, compositions and methods thereof” (2017).
